In US8598154B2 (Corcept Therapeutics, Inc., priority 2010, dated 2013):
pKi: −log10 of the molar value.

Assays:
[1] = target: T1, Human Recombinant Glucocorticoid Receptor (Homo sapiens, UniProt P04150); test: Glucocorticoid receptor binding displacement assay with 3H-dexamethasone; conditions: displacement of 2.5 nM 3H-dexamethasone; Ki from IC50 by Cheng-Prusoff; read-out: GR Binding Ki
T1 construct: This GR was a full-length steroid hormone receptor likely to be associated with heat-shock and other endogenous proteins; host or cells: baculovirus-infected insect cells
T1 sequence (P04150 1-777): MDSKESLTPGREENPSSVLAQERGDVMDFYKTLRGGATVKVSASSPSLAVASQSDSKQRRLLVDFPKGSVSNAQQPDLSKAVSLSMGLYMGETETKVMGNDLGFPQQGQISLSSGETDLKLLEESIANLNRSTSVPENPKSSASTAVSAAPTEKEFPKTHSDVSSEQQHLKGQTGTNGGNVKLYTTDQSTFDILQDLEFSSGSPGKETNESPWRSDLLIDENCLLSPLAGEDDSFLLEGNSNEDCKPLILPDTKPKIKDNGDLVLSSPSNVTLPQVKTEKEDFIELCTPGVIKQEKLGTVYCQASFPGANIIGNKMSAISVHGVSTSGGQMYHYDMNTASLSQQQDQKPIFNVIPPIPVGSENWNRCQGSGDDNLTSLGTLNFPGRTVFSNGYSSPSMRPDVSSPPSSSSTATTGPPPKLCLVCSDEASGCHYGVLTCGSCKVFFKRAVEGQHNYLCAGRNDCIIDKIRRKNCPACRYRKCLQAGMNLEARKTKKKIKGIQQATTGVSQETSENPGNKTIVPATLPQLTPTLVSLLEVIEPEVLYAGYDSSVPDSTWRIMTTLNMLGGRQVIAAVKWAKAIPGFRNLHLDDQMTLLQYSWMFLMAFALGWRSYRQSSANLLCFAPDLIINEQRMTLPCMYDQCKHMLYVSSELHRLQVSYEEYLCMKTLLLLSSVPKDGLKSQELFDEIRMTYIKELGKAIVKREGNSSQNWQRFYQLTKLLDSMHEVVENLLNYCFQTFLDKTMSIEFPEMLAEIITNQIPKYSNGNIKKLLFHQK
Protocol: The source of the receptor was recombinant baculovirus-infected insect cells. This GR was a full-length steroid hormone receptor likely to be associated with heat-shock and other endogenous proteins.
For the Primary Screen, test compounds were tested at 1 μM in duplicate. These compounds were diluted from 10 mM stock in 100% DMSO. After dilution to 100 μM, 5 μl were added to 245 μl assay buffer to obtained 2 μM compound and 2% DMSO.
For the IC50 determinations, test compounds were tested at 6 concentrations in duplicate (concentration range depends on % inhibition binding that was obtained in the Primary Screen). Test compounds were diluted from 10 mM stock in 100% DMSO. The tested solutions were prepared at 2× final assay concentration in 2% DMSO/assay buffer.
All reagents and the assay plate were kept on ice during the addition of reagents. […] After the additions, the incubation mixture was mixed and incubated for 2.5 hrs at 4° C.
After 2.5 hrs incubation, unbound counts were removed with dextran coated charcoal (DCC) as follows: 25 μl of DCC solution (10% DCC in assay buffer) was added to all wells and mixed (total volume 225 μl). The plate was centrifuged at 4000 rpm for 10 minutes at 4° C. 75 μl of the supernatants (i.e.⅓ of total volume) was carefully pipetted into an optiplate. 200 μl of scintillation cocktail were added (Microscint-40, Packard Bioscience. B.V.). The plate was vigorously shaken for approx. 10 minutes and counted on Topcount.
The IC50 values were converted to Ki (the inhibition constant) using the Cheng-Prusoff equation. Test results are presented in Tablel.
Reagents: Assay buffer: 10 mM potassium phosphate buffer pH 7.6 containing 5 mM DTT, 10 mM sodium molybdate, 100 μM EDTA and 0.1% BSA.

[2] = target: T2, glucocorticoid receptors (GR) in SW1353/MMTV-5 cells (Homo sapiens, UniProt P04150); test: GR functional assay using SW1353/MMTV-5 cells (MMTV-luciferase reporter); assay type: cell-based
T2 construct: contains endogenous glucocorticoid receptors; endogenous in cells; host or cells: SW1353/MMTV-5 (human chondrosarcoma, stably transfected with the pMAMneo-Luc reporter only)
T2 sequence (P04150 1-777): T1 sequence (P04150 1-777)
Protocol: SW1353/MMTV-5 is an adherent human chondrosarcoma cell line that contains endogenous glucocorticoid receptors. It was transfected with a plasmid (pMAMneo-Luc) encoding firefly luciferase located behind a glucocorticoid-responsive element (GRE) derived from a viral promoter (long terminal repeat of mouse mammary tumor virus). A stable cell line SW1353/MMTV-5 was selected with geneticin, which was required to maintain this plasmid.
SW1353/MMTV-5 cells were distributed in 96-well plates and incubated in medium (without geneticin) for 24 hrs (in the absence of CO2).

Structure (SMILES)	pKi [1]	pKi [2]
CC1(COC(=O)[C@]23Cc4cnn(-c5ccc(F)cc5)c4C=C2CCN(S(=O)(=O)c2ccc(N4CCOCC4)nc2)C3)COC1 [Example 54, (R)-1-(4-Fluorophenyl)-6-(6-morpholin-4-yl-pyridine-3-sulfonyl]-1,4,5,6,7,8-hexahydro-1,2,6-triaza-cyclopenta[b]naphthalene-4a-carboxylic acid 3-methyloxetan-3-ylmethyl ester]	< 9.00	< 7.30
COC[C@]12Cc3cnn(-c4ccc(F)cc4)c3C=C1CCN(S(=O)(=O)c1ccc(N3CC[C@H](O)C3)nc1)C2 [Example 22, (S)-1-{5-[(R)-1-(4-Fluorophenyl)-4a-methoxymethyl-1,4,4a,5,6,7,8-hexahydro-1,2,6-triaza-cyclopenta[b]naphthalene-6-sulfonyl]-pyridin-2-yl}-pyrrolidin-3-ol]	< 9.00	< 7.30
O=S(=O)(c1ccc(N2CCOCC2)nc1)N1CCC2=Cc3c(cnn3-c3ccc(F)cc3)C[C@]2(COCC2CC2)C1 [Example 32, (R)-4a-Cyclopropylmethoxymethyl-1-(4-fluorophenyl)-6-(6-morpholin-4-yl-pyridine-3-sulfonyl)-4,4a,5,6,7,8-hexahydro-1H-1,2,6-triaza-cyclopenta[b]naphthalene]	9.00 to 9.30	> 8.00
COC(=O)[C@]12Cc3cnn(-c4ccc(F)cc4)c3C=C1CCN(S(=O)(=O)c1ccc(N3CCOCC3)nc1)C2 [Example 1c, (R)-1-(4-Fluorophenyl)-6-(6-morpholin-4-ylpyridine-3-sulfonyl)-1,4,5,6,7,8-hexahydro-1,2,6-triazacyclopenta[b]naphthalene-4a-carboxylic acid methyl ester]	< 9.00	< 7.30
O=S(=O)(c1ccc(N2CCOCC2)nc1)N1CCC2=Cc3c(cnn3-c3ccc(F)cc3)C[C@]2(CO)C1 [Example 1d, [(R)-1-(4-Fluorophenyl)-6-[[6-(4-morpholinyl)-3-pyridinyl]sulfonyl]-1,4,7,8-tetrahydro-1,2,6-triazacyclopenta[b]naphthalen-4a-yl]methanol]	< 9.00	< 7.30
COC[C@]12Cc3cnn(-c4ccc(F)cc4)c3C=C1CCN(S(=O)(=O)c1ccc(N3C[C@@H]4C[C@H]3CO4)nc1)C2 [Example 23, (R)-1-(4-Fluorophenyl)-4a-methoxymethyl-6-[(1S,4S)-6-(2-oxa-5-aza-bicyclo[2.2.1]hept-5-yl)pyridine-3-sulfonyl]-4,4a,5,6,7,8-hexahydro-1H-1,2,6-triaza-cyclopenta[b]naphthalene]	< 9.00	< 7.30
O=S(=O)(c1ccc(N2CC[C@H](F)C2)nc1)N1CCC2=Cc3c(cnn3-c3ccc(F)cc3)C[C@]2(COCC2CC2)C1 [Example 27, (R)-4a-Cyclopropylmethoxymethyl-1-(4-fluorophenyl)-6-(6-((S)-3-fluoropyrrolidin-1-yl)-pyridine-3-sulfonyl)-4,4a,5,6,7,8-hexahydro-1H-1,2,6-triaza-cyclopenta[b]naphthalene]	9.00 to 9.30	> 8.00
COC[C@]12Cc3cnn(-c4ccc(F)cc4)c3C=C1CCN(S(=O)(=O)c1cncc(N3CC(F)C3)c1)C2 [Example 37, (R)-6-[5-(3-Fluoroazetidin-1-yl)-pyridine-3-sulfonyl]-1-(4-fluorophenyl)-4a-methoxymethyl-4,4a,5,6,7,8-hexahydro-1H-1,2,6-triaza-cyclopenta[b]naphthalene]	9.00 to 9.30	> 8.00
COC[C@]12Cc3cnn(-c4ccc(F)cc4)c3C=C1CCN(S(=O)(=O)c1ccc(N3CC[C@@H](O)C3)nc1)C2 [Example 21, (R)-1-{5-[(R)-1-(4-Fluorophenyl)-4a-methoxymethyl-1,4,4a,5,6,7,8-hexahydro-1,2,6-triaza-cyclopenta[b]naphthalene-6-sulfonyl]-pyridin-2-yl}-pyrrolidin-3-ol]	< 9.00	< 7.30
COC[C@]12Cc3cnn(-c4ccc(F)cc4)c3C=C1CCN(S(=O)(=O)c1cncc(N3CCOCC3)c1)C2 [Example 12, (R)-1-(4-Fluorophenyl)-4a-methoxymethyl-6-(5-morpholin-4-ylpyridine-3-sulfonyl)-4,4a,5,6,7,8-hexahydro-1H-1,2,6-triazacyclopenta[b]naphthalene]	< 9.00	< 7.30
COC[C@]12Cc3cnn(-c4ccc(F)cc4)c3C=C1CCN(S(=O)(=O)c1cncc(N3CCC3)c1)C2 [Example 13, (R)-6-(5-Azetidin-1-ylpyridine-3-sulfonyl)-1-(4-fluorophenyl)-4a-methoxymethyl-4,4a,5,6,7,8-hexahydro-1H-1,2,6-triazacyclopenta[b]naphthalene]	> 9.30	7.30 to 8.00
O=C(OCCO)[C@]12Cc3cnn(-c4ccc(F)cc4)c3C=C1CCN(S(=O)(=O)c1ccc(N3CCOCC3)nc1)C2 [Example 55, (R)-1-(4-Fluorophenyl)-6-(6-morpholin-4-yl-pyridine-3-sulfonyl]-1,4,5,6,7,8-hexahydro-1,2,6-triaza-cyclopenta[b]naphthalene-4a-carboxylic acid 2-hydroxethyl ester]	< 9.00	< 7.30
O=C(OCC1CC(O)C1)[C@]12Cc3cnn(-c4ccc(F)cc4)c3C=C1CCN(S(=O)(=O)c1ccc(N3CCOCC3)nc1)C2 (stereo partly drawn) [Example 53, (R)-1-(4-Fluorophenyl)-6-(6-morpholin-4-yl-pyridine-3-sulfonyl]-1,4,5,6,7,8-hexahydro-1,2,6-triaza-cyclopenta[b]naphthalene-4a-carboxylic acid 3-hydroxycyclobutylmethyl ester]	< 9.00	7.30 to 8.00
COC[C@]12Cc3cnn(-c4ccc(F)cc4)c3C=C1CCN(S(=O)(=O)c1cncc(N3CC[C@H](O)C3)c1)C2 [Example 39, (S)-1-{5-[(R)-1-(4-Fluorophenyl)-4a-methoxymethyl-1,4,4a,5,6,7,8-hexahydro-1,2,6-triaza-cyclopenta[b]naphthalene-6-sulfonyl]pyridine-3-yl}-pyrrolidine-3-ol]	9.00 to 9.30	< 7.30
CCOC[C@]12Cc3cnn(-c4ccc(F)cc4)c3C=C1CCN(S(=O)(=O)c1ccc(N(C)C)nc1)C2 [Example 8, (R)-6-[[6-Dimethylamino-3-pyridinyl]sulfonyl]-4a-ethoxymethyl-1-(4-fluorophenyl)-1,4,7,8-tetrahydro-1,2,6-triazacyclopenta[b]naphthalene]	> 9.30	> 8.00
CCOC[C@]12Cc3cnn(-c4ccc(F)cc4)c3C=C1CCN(S(=O)(=O)c1cnc3c(c1)OCCN3C)C2 [Example 3]	> 9.30	7.30 to 8.00
COC[C@]12Cc3cnn(-c4ccc(F)cc4)c3C=C1CCN(S(=O)(=O)c1ccnc(N3CC[C@@H](O)C3)c1)C2 [Example 43, (R)-1-{4-[(R)-1-(4-Fluorophenyl)-4a-methoxymethyl-1,4,4a,5,6,7,8-hexahydro-1,2,6-triaza-cyclopenta[b]naphthalene-6-sulfonyl]-pyridin-2-yl}-pyrrolidin-3-ol]	< 9.00	< 7.30
